SMILES strings stand for the structures.

This passage reports IC50 and inhibition results from ChEMBL document CHEMBL1147779, “N-Hydroxyurea as zinc binding group in matrix metalloproteinase inhibition: mode of binding in a complex with MMP-8” (Bioorg Med Chem Lett, 2006).

Assay [1] concerns the target Neutrophil collagenase (Homo sapiens, UniProt P22894). The assay is described as follows: Inhibitory activity against MMP8.
For assay [2], the target named is T1, Stromelysin-1 (Homo sapiens, UniProt P08254). Put plainly: Inhibitory activity against MMP3.
Target sequence in this assay (P08254 whole entry): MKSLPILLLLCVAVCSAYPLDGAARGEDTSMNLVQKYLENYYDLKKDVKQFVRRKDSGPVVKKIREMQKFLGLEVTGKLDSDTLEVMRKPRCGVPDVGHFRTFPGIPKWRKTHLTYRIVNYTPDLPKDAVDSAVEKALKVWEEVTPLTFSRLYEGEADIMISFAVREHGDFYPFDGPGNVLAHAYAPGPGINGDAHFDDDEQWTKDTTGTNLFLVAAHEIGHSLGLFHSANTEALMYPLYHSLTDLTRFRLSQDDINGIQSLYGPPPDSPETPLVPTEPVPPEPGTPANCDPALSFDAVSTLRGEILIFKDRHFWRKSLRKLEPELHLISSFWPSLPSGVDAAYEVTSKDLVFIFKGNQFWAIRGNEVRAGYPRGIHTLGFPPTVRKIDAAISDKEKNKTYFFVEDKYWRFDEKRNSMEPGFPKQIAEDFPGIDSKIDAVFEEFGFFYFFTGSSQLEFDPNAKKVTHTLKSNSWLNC
Assay [3] deals with 72 kDa type IV collagenase (Homo sapiens, UniProt P08253). Put plainly: Inhibitory activity against MMP2.
In assay [4] the target is T1, Stromelysin-1. The assay is described as follows: Inhibitory activity against MMP3 at 120 uM.
Target sequence in this assay (P08254 100-477 limits assumed): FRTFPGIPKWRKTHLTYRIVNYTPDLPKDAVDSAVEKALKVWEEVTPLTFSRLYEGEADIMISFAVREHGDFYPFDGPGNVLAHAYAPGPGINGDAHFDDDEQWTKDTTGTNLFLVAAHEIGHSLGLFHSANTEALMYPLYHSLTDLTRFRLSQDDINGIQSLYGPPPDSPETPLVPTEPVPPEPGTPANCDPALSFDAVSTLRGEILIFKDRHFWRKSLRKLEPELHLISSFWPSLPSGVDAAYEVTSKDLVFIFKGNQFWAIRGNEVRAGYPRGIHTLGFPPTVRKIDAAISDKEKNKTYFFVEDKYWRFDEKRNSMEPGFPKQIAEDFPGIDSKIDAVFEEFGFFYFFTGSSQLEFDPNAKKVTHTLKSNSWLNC

72 kDa type IV collagenase, sequence (P08253 whole entry): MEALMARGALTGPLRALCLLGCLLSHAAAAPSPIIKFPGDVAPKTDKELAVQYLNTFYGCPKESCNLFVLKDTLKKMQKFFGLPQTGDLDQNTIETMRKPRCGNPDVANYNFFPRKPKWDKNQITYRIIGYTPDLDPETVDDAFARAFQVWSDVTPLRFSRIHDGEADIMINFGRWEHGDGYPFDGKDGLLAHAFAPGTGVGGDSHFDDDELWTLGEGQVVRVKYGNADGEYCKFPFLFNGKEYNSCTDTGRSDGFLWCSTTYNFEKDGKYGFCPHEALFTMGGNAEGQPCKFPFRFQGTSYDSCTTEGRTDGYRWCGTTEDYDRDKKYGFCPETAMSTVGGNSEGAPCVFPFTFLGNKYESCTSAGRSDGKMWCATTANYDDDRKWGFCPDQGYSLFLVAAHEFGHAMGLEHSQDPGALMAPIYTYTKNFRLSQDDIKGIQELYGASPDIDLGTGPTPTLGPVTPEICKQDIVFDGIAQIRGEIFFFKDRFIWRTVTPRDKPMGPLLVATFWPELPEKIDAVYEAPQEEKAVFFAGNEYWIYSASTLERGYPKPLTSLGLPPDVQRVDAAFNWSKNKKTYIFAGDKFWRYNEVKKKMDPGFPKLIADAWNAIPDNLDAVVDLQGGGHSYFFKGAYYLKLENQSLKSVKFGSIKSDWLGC
Neutrophil collagenase, sequence (P22894 whole entry): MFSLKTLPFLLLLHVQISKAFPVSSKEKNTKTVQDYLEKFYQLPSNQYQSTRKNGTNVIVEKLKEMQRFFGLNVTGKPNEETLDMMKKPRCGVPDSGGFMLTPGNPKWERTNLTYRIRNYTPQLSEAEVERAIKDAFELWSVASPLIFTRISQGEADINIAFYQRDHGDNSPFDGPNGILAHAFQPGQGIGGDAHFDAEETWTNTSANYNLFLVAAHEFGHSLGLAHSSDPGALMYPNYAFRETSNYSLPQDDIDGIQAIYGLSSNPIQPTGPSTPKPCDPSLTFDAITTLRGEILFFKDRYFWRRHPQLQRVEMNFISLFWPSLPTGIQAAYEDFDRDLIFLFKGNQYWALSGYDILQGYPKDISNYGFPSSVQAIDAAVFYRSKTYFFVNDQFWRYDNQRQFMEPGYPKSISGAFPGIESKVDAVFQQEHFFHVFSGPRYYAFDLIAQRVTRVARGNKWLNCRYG

Broadly, the IC50 is the concentration needed to halve the response being measured. Read a low IC50 as greater potency in that assay. With `CN(CCc1ccc(Oc2ccccc2)cc1)C(=O)NO`, the 50% inhibitory concentration (IC50) in assay [1] came to 1000 µM; in assay [2], 380 µM; in assay [3], 685 µM.
Broadly, the inhibition is how much of the control response was suppressed. The low end stands for a response near the control, the high end for a response far below the control. Regarding `N#Cc1ccc(-c2ccc(OCCNC(=O)NO)cc2)cc1`, the inhibition in assay [4] stood at 22%. Moreover, the concentration for half-maximal inhibition (IC50) in assay [1] and in assay [3] was greater than 120 µM each time.
With `O=C(NO)NCCc1ccc(Oc2ccccc2)cc1`, the IC50 in assay [1], in assay [2] and in assay [3] was greater than 380 µM throughout.
With `CN(CCOc1ccc(-c2ccc(C#N)cc2)cc1)C(=O)NO`, the results for the IC50 in assay [2] and in assay [3] were 200 µM and 58 µM, respectively.
